Assay [1] relates to human platelet aggregation. Kind of assay: Inhibition of human platelet aggregation (anti-platelet aggregation activity). Particulars: human PRP, concentration required to inhibit aggregation by 50%, read-out: ED50 (the source's name). It is filed as cell-based. The method, then:
Inhibitory activity of the nitro compounds of this invention against human platelet aggregation was measured according to the method described below.
Blood was collected from human volunteers. The blood was prevented from coagulation with 1 volume of 3.8% sodium citrate to 9 volumes of blood. Platelet rich plasma (PRP) was prepared by centrifugation of the blood at 1300 rpm for 10 min. at 10° C. The PRP was diluted with platelet poor plasma obtained by further centrifugation of the blood at 3000 rpm for 10 min. The platelet counts in the PRP used for aggregation studies were about 4.0×10^5 platelets/mm^3. Aggregation studies were performed turbidimetrically using NKK HEMATRACER 1. To 225 μl of PRP 25 μl of the test compounds was added and preincubated for 2 min. After preincubation 5 μl of aggregating agents were added to the mixture. Collagen and ADP were used as aggregating agents at the concentrations of 0.5 μg/ml and 2.5 μM, respectively. Activities of the test compounds were expressed as ED50 values i.e. concentrations required to inhibit the platelet aggregation responses by 50%.

Assay [2] concerns Mean Arterial Blood Pressure in Anesthetized Rats. The experiment in a line: Effect on mean arterial blood pressure in anesthetized rats (intravenous). It is filed as in vivo, rat (male Sprague-Dawley). Particulars: for Hypotensive effect T 1/2: i.v., time to recover to half of maximal decrease. The procedure: Male Sprague-Dawley rats, aged 9-12 weeks, were anesthetized with urethane (1.4 g/kg i.p.). A polyethylene cannula filled with heparin solution was inserted into the femoral artery of the rats to measure mean blood pressure. Mean blood pressure was measured with a pressure transducer and recorded on a polygraph. The test compound dissolved in ethanol, polyethylene glycol and distilled water (1:1:2), were administered intraveneously in a volume of 0.25 ml/kg. Intravenous hypothypotensive effects of each compound were expressed as the maximal decrease (R max) and the half time (T 1/2). Briefly, R max was expressed as maximal % change compared to mean blood pressure prior to the administration of compound. T 1/2 was expressed as a time during which the hypotensive effect recovered to half of the maximal decrease.

The test system of assay [3] is thoracic aorta from male Sprague-Dawley rats. Kind of assay: Vasodilating activity in vitro (relaxation of norepinephrine-contracted aortic strips). The arrangement: species or system rat (male Sprague-Dawley). Particulars: rat aorta helical strips contracted by 3.2×10^-8 g/ml norepinephrine, 37° C. The procedure:
The thoracic aorta from male Sprague-Dawley rats, aged 9-11 weeks, were removed and cut into helical strips after removal of excess fat and connective tissues. The strips were mounted vertically in organ baths containing 25 ml Tyrode solution and isometric tension was measured. The tissue bath solution was maintained at 37° C. and bubbled with a 95% O2 and 5% CO2 gas mixture. After the resting tension was adjusted to 0.5 g, the strips were contracted by 3.2×10^-8 g/ml of norepinephrine (NE). The test compound dissolved in ethanol, polyethylene glycol and distilled water (1:1:2) were added to the organ bath cumulatively.
Then, relaxative activity of test compound was expressed as IC50 value i.e. concentration required to inhibit the contraction response by 50%.

For assay [4], the system named is Mean Arterial Blood Pressure in Conscious Rats. Kind of assay: Effect on mean arterial blood pressure in conscious rats (oral). Particulars: for Hypotensive effect T 1/2: time to recover to half of maximal decrease. It is filed as in vivo, rat (male Sprague-Dawley). The procedure: Male Sprague-Dawley rats, aged 9-11 weeks, were anesthetized with ether and a polyethylene cannula filled with heparin solution was inserted into the femoral artery of the rats to measure mean blood pressure. Mean blood pressure was measured with a pressure transducer and recorded on a polygraph. Two hours after operation, the drug suspended in 0.5% methyl cellulose was administered orally in a volume of 5 ml/kg. Oral hypotensive effects of each compound were expressed as the maximal decrease (R max), the half time (T 1/2) and the duration (Dur.). Briefly, R max was expressed as maximal % change compared to mean blood pressure prior to the administration of compound. T 1/2 was expressed as a time during which the hypotensive effect recovered to half of the maximal decrease. Duration was expressed as a time during which the hypotensive effect recovered to 5% of the maximal decrease.

Setting [5] is: Rattus norvegicus, iv, 0.1 mg/kg, maximal % decrease of mean blood pressure, read-out: Hypotensive effect R max.
The mark [6] stands for this setting: Rattus norvegicus, iv, 0.32 mg/kg, maximal % decrease of mean blood pressure, read-out: Hypotensive effect R max.
[7] abbreviates: Rattus norvegicus, iv, 0.032 mg/kg, maximal % decrease of mean blood pressure, read-out: Hypotensive effect R max.
The mark [8] stands for this setting: Rattus norvegicus, po, 10 mg/kg, maximal % decrease of mean blood pressure, read-out: Hypotensive effect R max.

SMILES strings stand for the structures. Like-named read-outs stand apart in the source and are kept apart here.

On to `CCC(=CC(COC(N)=O)=NO)C(C)[N+](=O)[O-]` (single isomer, unassigned) [Example 2 A, 4-Ethyl-2-hydroxyimino-5-nitro-3-hexen-1-yl carbamate], for which the IC50 came to 4.6 µM in assay [1] (Homo sapiens, Platelet, Inducer: Collagen 0.5 μg/ml) and 8.6 µM in assay [1] (Inducer: ADP 2.5 μM).

Turning to `CCC(=CC(COC(=O)c1cccnc1)=NO)C(C)[N+](=O)[O-]` (single isomer, unassigned) [Example 1 A, 4-ethyl-2-hydroxyimino-5-nitro-3-hexen-1-yl 3-pyridinecarboxylate], the inhibition in vivo at 0.1 mg/kg in assay [2] (setting [5]) came to 21.7%. The inhibition in vivo at 0.32 mg/kg in assay [2] (setting [6]) turned out to be 37%. The molecule also came in with an IC50 in assay [3] (Rattus norvegicus) of 16 µM.

In the case of `CCC(=CC(CN1C(=O)c2ccccc2C1=O)=NO)C(C)[N+](=O)[O-]` (single isomer, unassigned) [Example 4 B, N-(4-Ethyl-2-hydroxyimino-5-nitro-3-hexen-1-yl)-phthalimide], in assay [3], the IC50 was found to be 1.8 µM.

Take `CCC(=CC(CSc1nnnn1C)=NO)C(C)[N+](=O)[O-]` (single isomer, unassigned) [Example 12 A, 1-Methyl-5-(4-ethyl-2-hydroxyimino-5-nitro-3-hexen-1-yl)thiotetrazole]: the inhibition in vivo at 0.032 mg/kg in assay [2] (setting [7]) was determined as 16.7%. Also, the inhibition in vivo at 0.1 mg/kg in assay [2] (setting [5]) turned out to be 37.7%. The “Hypotensive effect T 1/2” value in assay [2] (0.032 mg/kg) stood at 7.4 min; in assay [2] (0.1 mg/kg), 5.9 min. Also, the IC50 came to 1.1 µM in assay [1] (Homo sapiens, Platelet, Inducer: ADP 2.5 μM) and 4.9 µM in assay [3] (Rattus norvegicus).

Take `CCC(=CC(CSc1nnnn1C)=NO)C(C)[N+](=O)[O-]` (single isomer, unassigned) [Example 12 B, 1-Methyl-5-(4-ethyl-2-hydroxyimino-5-nitro-3-hexen-1-yl)thiotetrazole]: the IC50 turned out to be 1.7 µM in assay [1] (Inducer: ADP 2.5 μM) and 5 µM in assay [3].

Turning to `CCC(=CC(COC(=O)c1cccnc1)=NO)C(C)[N+](=O)[O-]` (single isomer, unassigned) [Example 1 B, 4-ethyl-2-hydroxyimino-5-nitro-3-hexen-1-yl 3-pyridinecarboxylate], the inhibition in vivo at 0.032 mg/kg in assay [2] (setting [7]) was determined as 11.8%. The molecule also returned an IC50 in assay [3] of 10 µM.

With `CCC(=CC(CN1C(=O)c2ccccc2C1=O)=NO)C(C)[N+](=O)[O-]` (single isomer, unassigned) [Example 4 A, N-(4-Ethyl-2-hydroxyimino-5-nitro-3-hexen-1-yl)-phthalimide], the inhibition in vivo at 0.1 mg/kg in assay [2] (setting [5]) stood at 24.6%. In assay [2] (setting [6]), the inhibition in vivo at 0.32 mg/kg was determined as 40.8%. Besides, the figures for the “Hypotensive effect T 1/2” value in assay [2] (0.1 mg/kg) and in assay [2] (0.32 mg/kg) were 6.7 min and 5.1 min, respectively. In addition, in assay [3] (Rattus norvegicus), the IC50 came out at 1.2 µM.

Turning to `CCC(=CC(CNC(C)=O)=NO)C(C)[N+](=O)[O-]` (single isomer, unassigned) [Example 5 B, 1-Acetylamino-4-ethyl-2-hydroxyimino-5-nitro-3-hexene], in assay [2] (setting [5]), the inhibition in vivo at 0.1 mg/kg came out at 34.3%. For the same molecule, in assay [2] (0.1 mg/kg), the “Hypotensive effect T 1/2” value came out at 6.2 min. Also, the IC50 in assay [3] was 88.7 µM.

As for `CCC(=CC(CNS(=O)(=O)N(C)C)=NO)C(C)[N+](=O)[O-]` (single isomer, unassigned) [Example 7 A, N,N-Dimethyl-N'-(4-ethyl-2-hydroxyimino-5-nitro-3-hexen-1-yl)sulfamide], in assay [2] (setting [5]), the inhibition in vivo at 0.1 mg/kg came out at 31.7%. Further, the inhibition in vivo at 0.32 mg/kg in assay [2] (setting [6]) is 42.1%. The “Hypotensive effect T 1/2” value in assay [2] (0.1 mg/kg) is 7.6 min; in assay [2] (0.32 mg/kg), 5.1 min. The molecule also showed an IC50 in assay [3] (Rattus norvegicus) of 10.7 µM.

As for `CCNC(=O)OCC(C=C(CC)C(C)[N+](=O)[O-])=NO` (single isomer, unassigned) [Example 3 A, 4-Ethyl-2-hydroxyimino-5-nitro-3-hexen-1-yl ethylcarbamate], the inhibition in vivo at 0.032 mg/kg in assay [2] (setting [7]) is 12.6%. In addition, in assay [2] (setting [5]), the inhibition in vivo at 0.1 mg/kg turned out to be 29.3%. Further, the entries for the “Hypotensive effect T 1/2” value in assay [2] (0.032 mg/kg) and in assay [2] (0.1 mg/kg) were 4.8 min and 7.2 min, respectively. Further, the IC50 in assay [3] (Rattus norvegicus) worked out at 18.8 µM.

For `CCC(=CC(CSc1nc2ccccc2s1)=NO)C(C)[N+](=O)[O-]` (single isomer, unassigned) [Example 14 B, 2-(4-Ethyl-2-hydroxyimino-5-nitro-3-hexen-1-yl)thio-benzothiazole], in assay [2] (setting [7]), the inhibition in vivo at 0.032 mg/kg came to 4.7%. In addition, the inhibition in vivo at 0.1 mg/kg in assay [2] (setting [5]) amounted to 33.9%. Further, the IC50 in assay [3] (Rattus norvegicus) is 0.11 µM.

Turning to `COCC(C(C)=CC(CNC(=O)c1ccncc1)=NO)[N+](=O)[O-]` (centres unmarked) [Example 22, N-(2-Hydroxyimino-6-methoxy-4-methyl-5-nitro-3-hexen-1-yl)-4-pyridinecarboxamide], the inhibition in vivo at 0.32 mg/kg in assay [2] (setting [6]) amounted to 17.7%. For the same molecule, the inhibition in vivo at 1 mg/kg in assay [2] (Rattus norvegicus, iv, 1.0 mg/kg, maximal % decrease of mean blood pressure, read-out: Hypotensive effect R max) came to 35.9%. The “Hypotensive effect T 1/2” value in assay [2] (1.0 mg/kg) was 24.9 min; in assay [4] (10 mg/kg), 29.9 min; in assay [4] (32 mg/kg), 63.2 min. The inhibition in vivo at 10 mg/kg in assay [4] (setting [8]) amounted to 19.2%. In addition, the inhibition in vivo at 32 mg/kg in assay [4] (Rattus norvegicus, po, 32 mg/kg, maximal % decrease of mean blood pressure, read-out: Hypotensive effect R max) came out at 25.7%.

In the case of `CC(C)C(=CC(CNC(=O)c1cccnc1)=NO)C(C)[N+](=O)[O-]` (centres unmarked) [Example 20, N-(2-Hydroxyimino-4-isopropyl-5-nitro-3-hexen-1-yl)-3-pyridinecarboxamide], the inhibition in vivo at 0.32 mg/kg in assay [2] (setting [6]) worked out at 3.8%. The inhibition in vivo at 3.2 mg/kg in assay [2] (Rattus norvegicus, iv, 3.2 mg/kg, maximal % decrease of mean blood pressure, read-out: Hypotensive effect R max) was found to be 48.4%. The “Hypotensive effect T 1/2” value in assay [2] (3.2 mg/kg) came to 20.1 min; in assay [4] (10 mg/kg) it was 28.5 min. In assay [4] (setting [8]), the inhibition in vivo at 10 mg/kg came to 20.1%.

Regarding `CCC(=CC(COC(N)=O)=NO)C(C)[N+](=O)[O-]` (single isomer, unassigned) [Example 2 B, 4-Ethyl-2-hydroxyimino-5-nitro-3-hexen-1-yl carbamate], the inhibition in vivo at 0.032 mg/kg in assay [2] (setting [7]) was 30.9%. The inhibition in vivo at 0.1 mg/kg in assay [2] (setting [5]) worked out at 35.4%. In addition, the “Hypotensive effect T 1/2” value in assay [2] (0.032 mg/kg) amounted to 5.3 min; in assay [2] (0.1 mg/kg) it was 7.3 min. For the same molecule, the values for the IC50 in assay [1] (Inducer: ADP 2.5 μM), in assay [1] (Inducer: Collagen 0.5 μg/ml) and in assay [3] (Rattus norvegicus) were 2.4 µM, 3.6 µM and 11.1 µM, respectively.

As to `CCC(=CC(CNC(C)=O)=NO)C(CC)[N+](=O)[O-]` (centres unmarked) [Example 24, 1Acetylamino-4-ethyl-2-hydroxyimino-5-nitro-3-heptene], in assay [2] (setting [6]), the inhibition in vivo at 0.32 mg/kg was 31.8%. The “Hypotensive effect T 1/2” value worked out at 13.6 min in assay [2] (0.32 mg/kg) and 16.6 min in assay [4] (10 mg/kg). The inhibition in vivo at 10 mg/kg in assay [4] (setting [8]) was 40.7%.

For `CCC(=CC(CNS(=O)(=O)N(C)C)=NO)C(C)[N+](=O)[O-]` (single isomer, unassigned) [Example 7 B, N,N-Dimethyl-N'-(4-ethyl-2-hydroxyimino-5-nitro-3-hexen-1-yl)sulfamide], in assay [2] (0.1 mg/kg), the “Hypotensive effect T 1/2” value worked out at 6.6 min. In assay [3], the IC50 turned out to be 19.4 µM.
